Assay results published in patent US20040231558A1, “Water-color ink” (priority 2001, published 2004).

How the values were obtained:
[1] = Evaluation of light fastness-2 (OD value of printed portion after 400 hours xenon fadeometer); type: physicochemical; settings: ink prepared as in Example 1 from the salt named in the row; OD value of printed portion after 400 hours xenon fadeometer
Procedure, shortened: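 Ink loaded into a piezo ink-jet printer (EM-930C) and printed; printed portion irradiated for 400 hours in a xenon fadeometer, then printing density (OD value) measured to judge light fastness.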

[2] = Evaluation of storage stability of ink (40° C. for 3 months, insoluble matter and clogging); type: physicochemical; settings: recording liquid stored at 40° C. for 3 months; insoluble matter and clogging
Procedure, shortened: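 Ink stored at 40° C. for 3 months, then checked for precipitated insoluble matter. Clogging assessed after long continuous recording on a piezo-type ink-jet printer.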

[3] = Evaluation of light fastness-1 (OD value of printed portion after 100 hours xenon fadeometer); type: physicochemical; settings: ink prepared as in Example 1 from the salt named in the row; OD value of printed portion after 100 hours xenon fadeometer
Procedure, shortened: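 Prints were made on a piezo ink-jet printer. Optical density of the printed portion was measured after 100 hours of irradiation in a xenon fadeometer.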

[4] = Evaluation of moisture resistance (image-recorded paper at 40° C. and humidity 85%, visual observation); type: physicochemical; settings: image-recorded paper at 40° C. and humidity 85%, visually observed
[5] = Solubility in water of the salt

| Compound | (A)-2 light fastness-2 [1] | (C) storage stability [2] | (A)-1 light fastness-1 [3] | (B) moisture resistance [4] | Solubility in water ([5]; salt type M1 to M4) | Solubility in water ([5]; % by weight) |
| --- | --- | --- | --- | --- | --- | --- |
| Cc1c(N=Nc2cccc(C(=O)O)c2C(=O)O)c(O)[nH]c(=O)c1C#N [Compound No. 1] | ⊚ | ◯ | ⊚ | ◯ | >3% |  |
| Cc1c(N=Nc2cc(Cl)cc(C(=O)O)c2C(=O)O)c(O)[nH]c(=O)c1C#N [compound 3] | ⊚ | ◯ | ⊚ | ◯ | >3% |  |
| C[N+](C)(C)C.C[N+](C)(C)C.C[N+](C)(C)C.C[N+](C)(C)C.Cc1c(N=Nc2cc(C(=O)[O-])ccc2C(=O)[O-])c(O)n(CCNc2nc(Cl)nc(NCCn3c(O)c(N=Nc4cc(C(=O)[O-])ccc4C(=O)[O-])c(C)c(C#N)c3=O)n2)c(=O)c1C#N | ∘ | ∘ | ⊚ | ⊚ |  | ≥ 5% |
| Cc1c(N=Nc2cccc(C(=O)O)c2C(=O)O)c(O)n(CCS(=O)(=O)O)c(=O)c1C#N [compound 106] | ⊚ and Δ | ◯ and Δ | ⊚ | Δ and ◯ | >5% |  |
| Cc1c(C(=O)O)ccc(C(=O)O)c1N=Nc1c(O)[nH]c(=O)c(C#N)c1C [Compound No. 24] | ◯ | ◯ | ⊚ | ◯ | >5% |  |
